Among the data in patent US20250327791A1, “METHODS OF TREATMENT BASED ON PATIENT SPECIFIC CLINICAL TRIAL MODELS AND ASSOCIATED MODELS AND USES” (DUKE UNIVERSITY, priority 2017, published 2025) are IC50 and inhibition values, retold here.

Holding throughout (type): cell-based
Test [1] relates to CRC240. Nature of the test: In vitro screening, ponatinib IC50 (cell viability). To be noted: Homo sapiens, 72 hours after drug addition. Here is the method:
(§1) For in vitro screening, cell lines were cultured in DMEM+10% FBS+1% Penicillin/Streptomycin and plated in drug free medium. Ponatinib solubilized in DMSO was added to cell lines containing between 3000-6000 cells that had been incubated at 37° C. for 24 hours. Each cell line was exposed to seven different drug combinations between 1.6 nM and 25 μM. Five replicates were used for each drug concentration. 72 hours after drug addition cell viability assay and IC50 values were calculated for each cell line using GraphPad Prism software.
(§2) Reanalyzing the screen data, FIG. 6A identified axitinib 61, sunitinib 62, and dasatinib 63 as targeting similar pathways as ponatinib 64. […] Pre and post ponatinib treatment the major signaling pathways downstream of FGFR, FIG. 7C, not only show a decrease in STAT expression FIG. 8 in CRC119 81, CRC240 83, and CRC057 85 but an increase in p-AKT expression in CRC 119 86, CRC240 87, and CRC057 88. Expression of p-ERK increased in CRC240 89, and CRC057 82 as well.

Test [2] has as its system CRC057. Described as above. The note with it: Homo sapiens, 72 hours after drug addition. As to the method: as §1, §2
Test [3] concerns CRC 119. The description is as above. The note with it: Homo sapiens, 72 hours after drug addition. As to the method: as §1, §2
Test [4] has as its system CRC cell lines. The test is described as follows: High-throughput drug screen, panel of patient-derived cell lines. To be noted: Homo sapiens, in 4/6 cell lines, mined drug screen data, read-out: inhibits growth. As to the method: Unless otherwise noted all experiments were carried out using the following materials and methods which are here presented as examples and not limiting embodiments. All equivalent variants are contemplated as part of the presently disclosed subject matter. An Echo Acoustic Dispenser provided automated liquid handling for drug addition while cell plating was performed by a Thermo Fisher Well Mate and assays used a Clarioscan plate reader. The drugs assayed were stamped to the cell plates immediately prior to cell plating at a final concentration of 1 μM. The drug pre-coated plates were plated with 500-1000 cells/well. 72 hours after cell plating cell viabilities were assessed via a CellTiter-Glo Luminescent Cell Viability Assay.
In this embodiment matching cells lines 31 and PDXs are created 32. These can be developed as described in the Uronis and Kim papers previously incorporated by reference. Drugs may subsequently be screened using these cell lines 33 the results validated in vivo 34 and RNA-Seq and molecular analysis 35 used. As a non-limiting example, CRC057, CRC119, CRC240, CRC247 15-496, and 16-159 were derived from patient colorectal cancers. It should be understood by those of skill in the art that any suitable type of cancer sample may have been taken. High-throughput drug screens, including 119 FDA-approved drug compounds, were performed using the patient-derived cell lines. […]

Usually pIC50 stands for −log10 of the IC50, conventionally taken in molar units.

pIC50: −log10 of the molar value.

For `Cc1ccc(C(=O)Nc2ccc(CN3CCN(C)CC3)c(C(F)(F)F)c2)cc1C#Cc1cnc2cccnn12` [ponatinib], the values for the pIC50 in test [1], in test [2] and in test [3] were 5.96, 6.15 and 5.96, respectively. In addition, the inhibition at 1 µM in test [4] was at least 50%.
